# What was measured:
# [1] = tested on: recurrent glioblastomas; test: Phase II clinical trial of cediranib in recurrent glioblastoma, retrospective VAI (MRI) analysis; type: in vivo, human
# Description: The study was approved by the institutional review board and informed consent was obtained from all subjects. Subject data included 13 females and 17 males diagnosed with a recurrent glioblastoma, average age 52 years, range 20-78 years. After study termination, nine subjects received one subsequent cycle of salvage chemotherapy, eight subjects received two cycles, one subject received three cycles, two subjects had undisclosed information on salvage chemotherapy and one subject received stereotactic radiosurgery.
# Baseline MRI examinations were acquired prior to therapy onset (days −5 and −1), and then repeated on days 1, 28, 56 and 112 after cediranib (AstraZeneca Pharmaceuticals) anti-angiogenic therapy onset or until disease progression according to the Macdonald criteria. All imaging were performed on a 3 Tesla Magnetom Trio MRI system (Siemens Medical Solutions) as follows:
# 4. Dynamic susceptibility contrast (DSC) perfusion images. Axial dual-echo echo-planar images with repetition-time 1.33 s, echo-times 34 ms and 103 ms, slice-thickness 5 mm, inter-slice distance 2.5 mm, in-plane resolution 1.70:1.70 mm, matrix size 128:128, 10 slices and 120 volumes. After approximately 85 s of imaging, a 0.2 mmol kg−1 dose of Gd-DTPA was injected at 5 cc s−1.
# We obtained relaxation rate curves for VAI analysis, perfusion values, blood volumes and mean transit times using established tracer kinetic models on the DSC images, corrected for contrast agent leakage (from blood-brain-barrier breakdown or resection) and fitted to a gammavariate curve for better visualization of vessel vortex effects. It has been speculated that contrast agent leakage is the reason for the clockwise vortex effect. […] Here, the pre-dose of Gd-DTPA during DCE imaging saturated potential leaky tumor tissue in the DSC images thereby minimizing the influence of leakage-induced T1-shortening effects. Relaxation rate curves not suited for analysis, conveying highly fluctuating time-courses from partial volume effects, voxel shifts and physiological pulsations were excluded from further analysis. Across all 30 subjects, an average of 78.21 percent±12.78 percent (standard deviation) of all tumor voxels met the inclusion criteria. To account for potential global systemic effects from hypertension, tumor relaxation rate curves were scaled with corresponding slice-specific mean, normal-tissue reference curves. In all figures showing vessel vortex curves, the tails of the vortex curves have been cut short to better visualize vortex direction. VAI analysis was performed using custom-made software in Matlab and traditional MRI was analyzed in nordicICE (NordicNeuroLab AS).
# A subject was assumed to have an increase (decrease) in voxels with a clockwise vortex direction if the clockwise- to counter-clockwise ratio was higher (lower) than the 95 percent confidence interval of the population arithmetic mean for two consecutive imaging time points. […] Differences in VAI parameters during therapy were assessed using pairwise Wilcoxons Signed Rank test. Differences in tumor volumes, vessel caliber, permeability, perfusion and mean transit times were assessed using Mann-Whitney tests. Associations between changes in vessel vortex direction ratios and progression-free survival and overall survival were assessed using multinomial logistic regression, Kaplan-Meier survival analysis and Cox regression after adjustments for age, extent of resection, neurological performance, salvage chemotherapy and stereotactic radiosurgery after study termination as well as changes in permeability (Ktrans), T1-weighted contrast-enhanced tumor volume and T2-weighted FLAIR tumor volume prior to, and during, anti-angiogenic therapy. For all tests, P=0.05 was considered significant (with Holm-Bonferroni correction for multiple comparisons) and pixel values below a 5 percent percentile and above a 95 percent percentile were removed prior to analysis to reduce the influence of outliers. […]
# [2] = tested on: recurrent glioblastomas; conditions: background statement on cediranib trial; cited from earlier work
smiles,measurement,setting,value
COc1cc2c(Oc3ccc4[nH]c(C)cc4c3F)ncnc2cc1OCCCN1CCCC1 [cediranib],Relative number of image voxels with a clockwise vortex direction in the tumor after therapy onset,"[1]; 30 subjects collectively, pair-wise Wilcoxons Signed Ranks test P<0.05",significant increase
same,"Median overall survival, nonresponders","[1]; non-responders = relative decrease in image voxels with clockwise vortex direction, recurrent glioblastoma",146 days
same,"Median overall survival, non-responding patients","[1]; non-responders with stable or reduced perfusion, P<0.001",169 days
same,"Median overall survival, responding subjects","[1]; responders = relative increase in image voxels with clockwise vortex direction at two consecutive imaging time points, recurrent glioblastoma",341 days
same,Longer survival of responding vs non-responding patients,[1]; responders by increased perfusion vs non-responders,approximately 6 months
same,Shunt index values at days 1 and 28,"[1]; responders by vascular normalization compared to non-responders, P<0.05",reduced
same,"Median overall survival, responding patients","[1]; responders identified by increased perfusion (vascular normalization), P<0.001",348 days
same,Contrast enhanced and FLAIR tumor volumes at day 28,"[1]; responders vs non-responders, Mann-Whitney P<0.05",significant reductions
same,Whole-tumor vessel calibers compared to pre-treatment,"[1]; responding subjects, P<0.01",significant reductions
same,Longer survival of patients whose tumor perfusion increased during treatment,[2],approximately 6 months

# — patent US20160058304A1, “SYSTEM AND METHOD FOR VESSEL ARCHITECTURAL IMAGING” (priority 2013, published 2016)
